Measurements from US7351811B2, “Gene SCC-112 and diagnostic and therapeutic uses thereof” (Georgetown University, priority 2001, dated 2008).
Values joined by “and” are separate entries in the source; they are usually repeats but may differ in a detail not shown here. Equal values may be shown once.

Key:
Type in all cases: cell-based, human
[1] = system: SCC-112 mRNA in LnCap prostate cancer cells; assay: Northern hybridization of SCC-112 mRNA in androgen-treated LNCaP cells
Description: FIG. 5. Androgen induces the steady state levels of SCC-112 mRNA in prostate cancer cells. LNcap prostate cancer cells were grown in IMEM with 5% FBS. Logarithmically growing cells were switched to medium containing 5% charcoal stripped serum […] before the experiment. Indicated concentrations of synthetic androgen, R1881 (NEN) were added for 48 h. Total RNA was isolated and subjected to Northern hybridization using SCC-112 as probe.
FIG. 6. […] LnCAP cells were grown in IMEM medium containing 5% fetal bovine serum. Medium was replaced with 5% charcoal-stripped serum containing medium for 24 h, followed by addition of indicated concentration of synthetic androgen (R1881) for 48 h. Total RN A was isolated from various treatments and analyzed by northern blotting and hybridization using a radiolabeled SCC-112 cDNA fragment (1568 bp-6744 bp).
(§1) RNA Isolation and Northern Hybridization: MDA-MB 435 cells were synchronized at different cell cycle stages, and total RNA was isolated with Trizol reagent according to the manufacturer's instructions (Invitrogen Life technologies, Inc.). […] The autoradiographs were scanned and bands were quantified using IMAGEQUANT software (Molecular Dynamics, Sunnyvale, Calif.).

[2] = system: SCC-112 mRNA in MDA-MB 435 cells; assay: Northern hybridization of SCC-112 mRNA in nocodazole-arrested (G2/M) MDA-MB 435 cells; conditions: 100 ng/ml, 16 h, G2/M phase
Description: (§2) (C) Expression of SCC-112 mRNA and protein in G2/M phase. Logarithmically growing cells were arrested at G2/M phase using 100 ng/ml of nocodazole for 16 h (+). SCC-112 mRNA (upper) and protein levels (lower) were quantified as above. The SCC-112. mRNA level was ˜2 fold higher during G2/M phase (+) as compared to untreated cells (−). SCC-112 protein level was elevated during G2/M phase (˜5 fold) in nocodazole treated cells (+) as compared to untreated cells (−).
as §1
(§3) Cell Synchronization and Flow Cytometry: Logarithmically growing MDA-MB 435 cells were treated with 4 ug/ml aphidicolin, a DNA polymerase-a inhibitor, for 24 h to synchronize cells at G1/S phase. […] The cell cycle distribution profiles were determined using a Fluorescence Activated Cell Sorter (Becton Dickinson).

[3] = system: SCC-112 protein in MDA-MB 435 cells; assay: Western blot of SCC-112 protein in nocodazole-arrested (G2/M) MDA-MB 435 cells; conditions: 100 ng/ml, 16 h, G2/M phase
Description: as §2
Western Blot Analysis: The cells were rinsed with ice-cold PBS and scrapped in lysis solution containing Tris (20 mM, pH 8.0), NaCl (150 mM), 1% NP-40 (w/v), 10% glycerol (w/v), 1 mM phenylmethylsulphonyl fluoride (PMSF), aprotinin (20 ug/ml) and leupeptin (20 ug/ml). The cells were lysed for 45 min with vigorous shaking at 4° C. and centrifuged at 12,000×g for 15 min at 4° C. Fifty micrograms of total protein were heat denatured by boiling for 5 min in SDS-PAGE loading buffer. After SDS-PAGE, the proteins were electrophoretically transferred on to PVDF membrane (Millipore). […]
as §3

| Compound | induction of steady state level of SCC-112 transcript (~8.0 kb) ([1]; LNCaP cells, charcoal-stripped serum, 1 nM to 100 nM, 48 h, vs untreated cells) | effect on SCC-112 mRNA expression (in words) ([1]; LNCap cells, FIG. 5) | SCC-112 mRNA level vs untreated cells [2] [fold] | SCC-112 protein level vs untreated cells [3] [fold] |
| --- | --- | --- | --- | --- |
| C[C@]1(O)CC[C@H]2[C@@H]3CCC4=CC(=O)CCC4=C3C=C[C@@]21C [R1881] | 4-7 fold and 4- to 7 fold | induces SCC-112 mRNA expression |  |  |
| COC(=O)Nc1nc2ccc(C(=O)c3cccs3)cc2[nH]1 [nocodazole] |  |  | ~2 | ~5 |
